The values below come from US11439707B2, “Hypocrellin derivative substituted both in a peri-position and in 2-position by amino, preparation method, and application thereof” (priority 2017, dated 2022).

Data set [1] is described as follows: absorption spectrum (maximum absorption wavelength, molar extinction coefficient). The data set is classed as physicochemical.
Data set [2] can be described thus: singlet oxygen efficiency test, reference rose bengal. The format is physicochemical.

`COC(=O)C1CCC(CNc2c3c4c5c(c(OC)c(=O)c6c(O)cc(OC)c(c7c(OC)cc(NCC8CCC(C(=O)OC)CC8)c(c2=O)c74)c65)C(C(C)=O)C(C)=C3)CC1` (stereo not drawn) [HB-13c-AcE]: in data set [1], the maximum absorption wavelength came out at 621 nm and the molar extinction coefficient was 28,500 M^−1cm^−1. Also, the singlet oxygen yield in data set [2] is 30%.

Consider `COCCOCCOCCOCCOCCOCCOCCOCCOCCNC(=O)C1CCC(CNc2c3c4c5c(c(OC)c(=O)c6c(O)cc(OC)c(c7c(OC)cc(NCC8CCC(C(=O)NCCOCCOCCOCCOCCOCCOCCOCCOCCOC)CC8)c(c2=O)c74)c65)C(C(C)=O)C(C)=C3)CC1` (stereo not drawn) [HB-13c-NH-PEG8], for which, in data set [1], the maximum absorption wavelength worked out at 630 nm and the molar extinction coefficient is listed as 33,500 M^−1cm^−1. Further, the singlet oxygen yield in data set [2] is 39%.

Take `COCCOCCOCCOCCOC(=O)C1CCC(CNc2c3c4c5c(c(OC)c(=O)c6c(O)cc(OC)c(c7c(OC)cc(NCC8CCC(C(=O)OCCOCCOCCOCCOC)CC8)c(c2=O)c74)c65)C(C(C)=O)C(C)=C3)CC1` (stereo not drawn) [HB-13c-PEG4]: in data set [1], the maximum absorption wavelength is 630 nm and the molar extinction coefficient is 32,500 M^−1cm^−1. The compound further yielded a singlet oxygen yield in data set [2] of 38%.

Take `COC(=O)C1CCC(CNc2c3c4c5c(c(OC)c(=O)c6c(NCC7CCC(C(=O)OC)CC7)cc(OC)c(c7c(OC)cc(O)c(c2=O)c74)c65)C(C(C)=O)C(C)=C3)CC1` (stereo not drawn) [HB-13d-AcE]: in data set [1], the maximum absorption wavelength was found to be 623 nm and the molar extinction coefficient is 28,000 M^−1cm^−1. In data set [2], the singlet oxygen yield was determined as 25%.

In the case of `COCCOCCOCCOCCOCCOCCOCCOCCOCCNC(=O)C1CCC(CNc2c3c4c5c(c(OC)c(=O)c6c(NCC7CCC(C(=O)NCCOCCOCCOCCOCCOCCOCCOCCOCCOC)CC7)cc(OC)c(c7c(OC)cc(O)c(c2=O)c74)c65)C(C(C)=O)C(C)=C3)CC1` (stereo not drawn) [HB-13d-NH-PEG8], in data set [1], the maximum absorption wavelength is reported as 628 nm and the molar extinction coefficient is reported as 31,500 M^−1cm^−1. Besides, in data set [2], the singlet oxygen yield is recorded as 32%.

Turning to `COCCOCCOCCOCCOCCOCCOCCOCCOCCOCCOCCOCCOCCOCCOCCOCCOC(=O)C1CCC(CNc2c3c4c5c(c(OC)c(=O)c6c(NCC7CCC(C(=O)OCCOCCOCCOCCOCCOCCOCCOCCOCCOCCOCCOCCOCCOCCOCCOCCOC)CC7)cc(OC)c(c7c(OC)cc(O)c(c2=O)c74)c65)C(C(C)=O)C(C)=C3)CC1` (stereo not drawn) [HB-13d-PEG16], in data set [1], the maximum absorption wavelength is listed as 624 nm and the molar extinction coefficient was 30,500 M^−1cm^−1. Also, the singlet oxygen yield in data set [2] was found to be 33%.

Turning to `COc1c2c3c4c(c(NCC5CCC(C(=O)O)CC5)c(=O)c5c(O)cc(OC)c(c6c(OC)cc(NCC7CCC(C(=O)O)CC7)c(c1=O)c63)c54)C=C(C)C2C(C)=O` (stereo not drawn) [HB-13d], in data set [1], the maximum absorption wavelength was 621 nm and the molar extinction coefficient is on record as 28,000 M^−1cm^−1. For the same compound, the singlet oxygen yield in data set [2] was 28%.

With `COCCOC(=O)C1CCC(Nc2c(NC3CCC(C(=O)OCCOC)CC3)c3c(=O)cc(OC)c4c5c(OC)cc(=O)c6c(O)c(OC)c7c(c(c2C=C(C)C7C(C)=O)c34)c65)CC1` (stereo not drawn) [HB-14a-PEG1], in data set [1], the maximum absorption wavelength is given as 622 nm and the molar extinction coefficient is given as 30,500 M^−1cm^−1. This compound also returned a singlet oxygen yield in data set [2] of 32%.

In the case of `COc1c(O)c2c(=O)cc(OC)c3c4c(OC)cc(=O)c5c(NC6CCC(C(=O)O)CC6)c(NC6CCC(C(=O)O)CC6)c6c(c(c1C(C(C)=O)C(C)=C6)c23)c54` (stereo not drawn) [HB-14a], in data set [1], the maximum absorption wavelength is on record as 625 nm and the molar extinction coefficient was 27,000 M^−1cm^−1. In data set [2], this compound displayed a singlet oxygen yield of 25%.

With `COCCOCCOCCOCCOCCOCCOC(=O)C1CCC(Nc2c(O)c3c(=O)cc(OC)c4c5c(OC)cc(=O)c6c(NC7CCC(C(=O)OCCOCCOCCOCCOCCOCCOC)CC7)c(OC)c7c(c(c2C=C(C)C7C(C)=O)c34)c65)CC1` (stereo not drawn) [HB-14b-PEG6], in data set [1], the maximum absorption wavelength stood at 624 nm and the molar extinction coefficient is 30,500 M^−1cm^−1. In addition, in data set [2], the singlet oxygen yield is on record as 34%.

Regarding `COc1c(NC2CCC(C(=O)O)CC2)c2c(=O)cc(OC)c3c4c(OC)cc(=O)c5c(O)c(NC6CCC(C(=O)O)CC6)c6c(c(c1C(C(C)=O)C(C)=C6)c23)c54` (stereo not drawn) [HB-14b], in data set [1], the maximum absorption wavelength stood at 623 nm and the molar extinction coefficient was 27,000 M^−1cm^−1. For the same compound, the singlet oxygen yield in data set [2] came to 24%.

Regarding `COCCOCCOCCOCCOCCOCCOCCOCCOCCOCCOCCOCCOC(=O)C1CCC(Nc2c3c4c5c(c(OC)c(=O)c6c(O)cc(OC)c(c7c(OC)cc(NC8CCC(C(=O)OCCOCCOCCOCCOCCOCCOCCOCCOCCOCCOCCOCCOC)CC8)c(c2=O)c74)c65)C(C(C)=O)C(C)=C3)CC1` (stereo not drawn) [HB-14c-PEG12], in data set [1], the maximum absorption wavelength worked out at 628 nm and the molar extinction coefficient was 33,500 M^−1cm^−1. In addition, in data set [2], the singlet oxygen yield was found to be 38%.

As to `COc1c2c3c4c(c(NC5CCC(C(=O)O)CC5)c(=O)c5c(NC6CCC(C(=O)O)CC6)cc(OC)c(c6c(OC)cc(O)c(c1=O)c63)c54)C=C(C)C2C(C)=O` (stereo not drawn) [HB-14c], in data set [1], the maximum absorption wavelength turned out to be 621 nm and the molar extinction coefficient is recorded as 28,000 M^−1cm^−1. This compound registered a singlet oxygen yield in data set [2] of 26%.

For `COCCOCCOCCOCCOCCOCCOC(=O)C1CCC(Nc2c3c4c5c(c(OC)c(=O)c6c(NC7CCC(C(=O)OCCOCCOCCOCCOCCOCCOC)CC7)cc(OC)c(c7c(OC)cc(O)c(c2=O)c74)c65)C(C(C)=O)C(C)=C3)CC1` (stereo not drawn) [HB-14d-PEG6], in data set [1], the maximum absorption wavelength was 630 nm and the molar extinction coefficient is listed as 31,500 M^−1cm^−1. The singlet oxygen yield in data set [2] worked out at 32%.

Take `COc1c2c3c4c(c(NC5CCC(C(=O)O)CC5)c(=O)c5c(O)cc(OC)c(c6c(OC)cc(NC7CCC(C(=O)O)CC7)c(c1=O)c63)c54)C=C(C)C2C(C)=O` (stereo not drawn) [HB-14d]: in data set [1], the maximum absorption wavelength worked out at 623 nm and the molar extinction coefficient was 27,000 M^−1cm^−1. This compound also showed a singlet oxygen yield in data set [2] of 24%.

With `COCCOC(=O)C1CCCC(Nc2c(NC3CCCC(C(=O)OCCOC)C3)c3c(=O)cc(OC)c4c5c(OC)cc(=O)c6c(O)c(OC)c7c(c(c2C=C(C)C7C(C)=O)c34)c65)C1` (stereo not drawn) [HB-15a-PEG1], in data set [1], the maximum absorption wavelength came out at 624 nm and the molar extinction coefficient is recorded as 30,000 M^−1cm^−1. Moreover, the singlet oxygen yield in data set [2] is on record as 30%.

With `COc1c(O)c2c(=O)cc(OC)c3c4c(OC)cc(=O)c5c(NC6CCCC(C(=O)O)C6)c(NC6CCCC(C(=O)O)C6)c6c(c(c1C(C(C)=O)C(C)=C6)c23)c54` (stereo not drawn) [HB-15a], in data set [1], the maximum absorption wavelength is reported as 625 nm and the molar extinction coefficient is 27,000 M^−1cm^−1. The same compound registered a singlet oxygen yield in data set [2] of 25%.

For `COCCOCCOCCOCCOCCOCCOC(=O)C1CCCC(Nc2c(O)c3c(=O)cc(OC)c4c5c(OC)cc(=O)c6c(NC7CCCC(C(=O)OCCOCCOCCOCCOCCOCCOC)C7)c(OC)c7c(c(c2C=C(C)C7C(C)=O)c34)c65)C1` (stereo not drawn) [HB-15b-PEG6], in data set [1], the maximum absorption wavelength is 624 nm and the molar extinction coefficient is listed as 30,000 M^−1cm^−1. This compound also gave a singlet oxygen yield in data set [2] of 34%.

As for `COc1c(NC2CCCC(C(=O)O)C2)c2c(=O)cc(OC)c3c4c(OC)cc(=O)c5c(O)c(NC6CCCC(C(=O)O)C6)c6c(c(c1C(C(C)=O)C(C)=C6)c23)c54` (stereo not drawn) [HB-15b], in data set [1], the maximum absorption wavelength stood at 623 nm and the molar extinction coefficient was 27,000 M^−1cm^−1. The compound also came in with a singlet oxygen yield in data set [2] of 24%.

`COCCOCCOCCOCCOCCOCCOCCOCCOCCOCCOCCOCCOC(=O)C1CCCC(Nc2c3c4c5c(c(OC)c(=O)c6c(O)cc(OC)c(c7c(OC)cc(NC8CCCC(C(=O)OCCOCCOCCOCCOCCOCCOCCOCCOCCOCCOCCOCCOC)C8)c(c2=O)c74)c65)C(C(C)=O)C(C)=C3)C1` (stereo not drawn) [HB-15c-PEG12]: in data set [1], the maximum absorption wavelength was 630 nm and the molar extinction coefficient is listed as 33,000 M^−1cm^−1. The compound further displayed a singlet oxygen yield in data set [2] of 35%.

In the case of `COc1c2c3c4c(c(NC5CCCC(C(=O)O)C5)c(=O)c5c(NC6CCCC(C(=O)O)C6)cc(OC)c(c6c(OC)cc(O)c(c1=O)c63)c54)C=C(C)C2C(C)=O` (stereo not drawn) [HB-15c], in data set [1], the maximum absorption wavelength was determined as 621 nm and the molar extinction coefficient is 28,000 M^−1cm^−1. The singlet oxygen yield in data set [2] amounted to 26%.

Regarding `COCCOCCOCCOCCOCCOCCOC(=O)C1CCCC(Nc2c3c4c5c(c(OC)c(=O)c6c(NC7CCCC(C(=O)OCCOCCOCCOCCOCCOCCOC)C7)cc(OC)c(c7c(OC)cc(O)c(c2=O)c74)c65)C(C(C)=O)C(C)=C3)C1` (stereo not drawn) [HB-15d-PEG6], in data set [1], the maximum absorption wavelength came out at 630 nm and the molar extinction coefficient was 32,500 M^−1cm^−1. This compound gave a singlet oxygen yield in data set [2] of 32%.

For `COc1c2c3c4c(c(NC5CCCC(C(=O)O)C5)c(=O)c5c(O)cc(OC)c(c6c(OC)cc(NC7CCCC(C(=O)O)C7)c(c1=O)c63)c54)C=C(C)C2C(C)=O` (stereo not drawn) [HB-15d], in data set [1], the maximum absorption wavelength worked out at 623 nm and the molar extinction coefficient was 27,000 M^−1cm^−1. This compound displayed a singlet oxygen yield in data set [2] of 24%.

Consider `COCCOC(=O)C1CCCCC1Nc1c(NC2CCCCC2C(=O)OCCOC)c2c(=O)cc(OC)c3c4c(OC)cc(=O)c5c(O)c(OC)c6c(c(c1C=C(C)C6C(C)=O)c23)c54` (stereo not drawn) [HB-16a-PEG1], for which, in data set [1], the maximum absorption wavelength stood at 624 nm and the molar extinction coefficient is 30,500 M^−1cm^−1. Further, the singlet oxygen yield in data set [2] came to 32%.

As for `COc1c(O)c2c(=O)cc(OC)c3c4c(OC)cc(=O)c5c(NC6CCCCC6C(=O)O)c(NC6CCCCC6C(=O)O)c6c(c(c1C(C(C)=O)C(C)=C6)c23)c54` (stereo not drawn) [HB-16a], in data set [1], the maximum absorption wavelength is listed as 620 nm and the molar extinction coefficient was 25,500 M^−1cm^−1. Further, the singlet oxygen yield in data set [2] worked out at 25%.

For the compound `COCCOCCOCCOCCOCCOCCOC(=O)C1CCCCC1Nc1c(O)c2c(=O)cc(OC)c3c4c(OC)cc(=O)c5c(NC6CCCCC6C(=O)OCCOCCOCCOCCOCCOCCOC)c(OC)c6c(c(c1C=C(C)C6C(C)=O)c23)c54` (stereo not drawn) [HB-16b-PEG6], in data set [1], the maximum absorption wavelength was determined as 624 nm and the molar extinction coefficient is listed as 30,500 M^−1cm^−1. This compound returned a singlet oxygen yield in data set [2] of 32%.

In the case of `COc1c(NC2CCCCC2C(=O)O)c2c(=O)cc(OC)c3c4c(OC)cc(=O)c5c(O)c(NC6CCCCC6C(=O)O)c6c(c(c1C(C(C)=O)C(C)=C6)c23)c54` (stereo not drawn) [HB-16b], in data set [1], the maximum absorption wavelength worked out at 625 nm and the molar extinction coefficient was 26,000 M^−1cm^−1. The compound also displayed a singlet oxygen yield in data set [2] of 26%.
